Our source for the GI50 and TGI values is PubChem BioAssay (NCI).

SMILES strings stand for the structures.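 Assay format: 96-well plates, 48-hour exposure. GI50: concentration for 50% inhibition of growth. TGI is the concentration that stops growth completely.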

The first test concerns SF-539 CNS. The experiment in a line: growth of human tumour cells (NCI), 48 h.
Regarding `O=C1c2ccccc2-c2c1c1cc3c(cc1c(=O)n2CCCCl)OCO3`, the GI50 is 51.4 µM and the TGI is over 100 µM.
The corresponding values for `COc1nc2c(cc1S(=O)(=O)c1ccccc1)CCc1c-2cnn1-c1ccccc1Cl` are over 100 µM and over 100 µM.
As for `CC(C)(C)C1=NC(S)NC(CCC(=O)Nc2ccccc2[N+](=O)[O-])=C1` (centres undefined), the TGI was over 100 µM.

Another test deals with UACC-257 melanoma. In words: growth of human tumour cells (NCI), 48 h.
`NC1(CCCCCCCCCCC(=O)O)CNCCNCCNCCNC1` came in with a TGI of over 100 µM.
For `NNC(=O)c1cnn(-c2ccnc3c(C(F)(F)F)cccc23)c1N`, the GI50 is over 100 µM and the TGI was over 100 µM.
`CC(=O)OCCc1cccnc1/C=N/O` showed a TGI of over 100 µM.
Regarding `CCC1CCC2CCCC(C)N12` (centres undefined), the TGI is over 100 µM.
`O=C1CC[C@H]2CNC(=O)C[C@H]2C1` displayed a TGI of over 100 µM.
Turning to `COc1ccc(CNC(=O)COc2ccc(/C=N/Nc3nc4ccccc4s3)cc2)cc1`, the GI50 is 4.2 µM and the TGI was over 100 µM.
`CCOC(=O)CCCO` yielded a TGI of over 100 µM.
Same read-out and setting: with `CC1=CCCC(OC(N)=O)C1` (centres undefined) the figure was over 100 µM; with `c1ccc(-c2nnc(-c3nn(-c4ccccc4)c4nc5ccccc5nc34)o2)cc1`, over 100 µM.
Still for that read-out and setting: with `O=C(O)/C=C/C(=O)Nc1ncn[nH]1` the figure was over 100 µM; with `O=[N+]([O-])c1ccc(NSc2ccccc2)cc1`, over 100 µM; with `COc1ccc(N=Cc2cc(OC)c(OC)c(OC)c2)cc1`, over 100 µM.
`COc1cc([C@@H]2c3cc4c(cc3[C@@H](NC(=O)c3cccc([N+](=O)[O-])c3)C3COC(=O)[C@@H]32)OCO4)cc(OC)c1O` (some centres undefined) displayed a TGI of over 100 µM.
With `COC(=O)[C@@H](C)C[C@H](Cc1ccccc1)NC(=O)c1nc([C@@H](C[C@H](C(C)C)N(C)C(=O)[C@@H](NC(=O)[C@H]2CCCN2C)C(C)C)OC(C)=O)sc1C`, the GI50 is over 25 µM and the TGI was over 25 µM.
Take `O=c1[nH]c(=O)n(C2CC(O)C(CO)O2)cc1C#Cc1c(F)c(F)c(F)c(F)c1F` (centres undefined): the TGI is over 100 µM.
The compound `O=C(O)Cc1c[nH]c2ccc(F)cc12` gave a TGI of over 100 µM.
Turning to `COC(=O)C(CC(=O)c1cc2c(cc1I)OCO2)Cc1cc(OC)c(OC)c(OC)c1I` (centres undefined), the TGI is over 100 µM.
Consider `S=C1NCCN1C1=Nc2ccccc2CO1`, for which the GI50 was over 100 µM and the TGI is over 100 µM.
In turn, `OCc1c(-c2cccc3ccccc23)sc(-c2cccc3ccccc23)c1CO` showed a TGI of 25.6 µM.
For `CN(C)CCNc1nc2ccccc2c2[nH]c3ccccc3c12`, the GI50 is 3.74 µM and the TGI worked out at 16.9 µM.
With `OCCNCO`, the TGI is over 100 µM.
As to `Clc1cccc(NC=Nc2ccc(-c3nc4ccccc4s3)cc2)c1`, the GI50 is 16.1 µM and the TGI stood at 36.6 µM.
Turning to `COc1nc2c(cc1S(=O)(=O)c1ccccc1)CCc1c-2cnn1-c1ccccc1Cl`, the GI50 was 21.8 µM and the TGI was over 100 µM.
Turning to `CC(C)(C)C1=NC(S)NC(CCC(=O)Nc2ccccc2[N+](=O)[O-])=C1` (centres undefined), the TGI was over 100 µM.

Another test concerns UACC-62 melanoma. The experiment in a line: growth of human tumour cells (NCI), 48 h.
`NC1(CCCCCCCCCCC(=O)O)CNCCNCCNCCNC1` registered a TGI of over 100 µM.
As to `NNC(=O)c1cnn(-c2ccnc3c(C(F)(F)F)cccc23)c1N`, the GI50 is over 100 µM and the TGI is over 100 µM.
`CC(=O)OCCc1cccnc1/C=N/O`: the TGI is over 100 µM.
On the same count and under the same terms, under `CCC1CCC2CCCC(C)N12` (centres undefined) stands over 100 µM; under `O=C1CC[C@H]2CNC(=O)C[C@H]2C1`, over 100 µM.
Consider `COc1ccc(CNC(=O)COc2ccc(/C=N/Nc3nc4ccccc4s3)cc2)cc1`, for which the GI50 was 2.32 µM and the TGI was determined as 11.8 µM.
With `CCOC(=O)CCCO`, the TGI is over 100 µM.
`CC1=CCCC(OC(N)=O)C1` (centres undefined) came in with a TGI of over 100 µM.
In the case of `c1ccc(-c2nnc(-c3nn(-c4ccccc4)c4nc5ccccc5nc34)o2)cc1`, the TGI was over 100 µM.
Take `O=C(O)/C=C/C(=O)Nc1ncn[nH]1`: the TGI is over 100 µM.
Regarding `O=[N+]([O-])c1ccc(NSc2ccccc2)cc1`, the TGI is 55.7 µM.
For `COc1ccc(N=Cc2cc(OC)c(OC)c(OC)c2)cc1`, the TGI is over 100 µM.
Still for that read-out and setting: with `COc1cc([C@@H]2c3cc4c(cc3[C@@H](NC(=O)c3cccc([N+](=O)[O-])c3)C3COC(=O)[C@@H]32)OCO4)cc(OC)c1O` (some centres undefined) the figure was 7.54 µM.
In the case of `COC(=O)[C@@H](C)C[C@H](Cc1ccccc1)NC(=O)c1nc([C@@H](C[C@H](C(C)C)N(C)C(=O)[C@@H](NC(=O)[C@H]2CCCN2C)C(C)C)OC(C)=O)sc1C`, the GI50 is under 0.0025 µM and the TGI was over 25 µM.
In the case of `O=c1[nH]c(=O)n(C2CC(O)C(CO)O2)cc1C#Cc1c(F)c(F)c(F)c(F)c1F` (centres undefined), the TGI was over 100 µM.
As to `O=C(O)Cc1c[nH]c2ccc(F)cc12`, the TGI was over 100 µM.
On the same count and under the same terms, with `COC(=O)C(CC(=O)c1cc2c(cc1I)OCO2)Cc1cc(OC)c(OC)c(OC)c1I` (centres undefined) the figure was over 100 µM.
Consider `S=C1NCCN1C1=Nc2ccccc2CO1`, for which the GI50 was over 100 µM and the TGI is over 100 µM.
For `OCc1c(-c2cccc3ccccc23)sc(-c2cccc3ccccc23)c1CO`, the TGI turned out to be 23.5 µM.
In the case of `CN(C)CCNc1nc2ccccc2c2[nH]c3ccccc3c12`, the GI50 is 1.36 µM and the TGI was determined as 3.55 µM.
As to `OCCNCO`, the TGI was over 100 µM.
`Clc1cccc(NC=Nc2ccc(-c3nc4ccccc4s3)cc2)c1`: the GI50 is 13 µM and the TGI was found to be 38.1 µM.
Take `O=C1c2ccccc2-c2c1c1cc3c(cc1c(=O)n2CCCCl)OCO3`: the GI50 is 30.5 µM and the TGI was over 100 µM.
Take `COc1nc2c(cc1S(=O)(=O)c1ccccc1)CCc1c-2cnn1-c1ccccc1Cl`: the GI50 was 7.29 µM and the TGI is over 100 µM.
Consider `CC(C)(C)C1=NC(S)NC(CCC(=O)Nc2ccccc2[N+](=O)[O-])=C1` (centres undefined), for which the TGI was over 100 µM.
